Reference: the NIST ThermoML archive (doi:10.1021/je900691n)

Assay: xn = mol fraction of the nth substance listed
Details: Liquid, Pycnometric method

COC(=O)OC [dimethyl carbonate] + O=C=O
Details	mass density [kg/m3]
327.95 K, 9750 kPa, x1 = 0.1484	856
327.95 K, 9760 kPa, x1 = 0.118	818
327.95 K, 9770 kPa, x1 = 0.0242	407
327.95 K, 9860 kPa, x1 = 0.0242	418
327.95 K, 9950 kPa, x1 = 0.0242	430
327.95 K, 9990 kPa, x1 = 0.086	750
327.95 K, 10040 kPa, x1 = 0.0242	442
327.95 K, 10120 kPa, x1 = 0.0242	453
327.95 K, 10240 kPa, x1 = 0.118	827
327.95 K, 10240 kPa, x1 = 0.1484	862
327.95 K, 10400 kPa, x1 = 0.086	762
327.95 K, 10740 kPa, x1 = 0.086	772
327.95 K, 10740 kPa, x1 = 0.118	835
327.95 K, 10770 kPa, x1 = 0.1484	868
327.95 K, 11180 kPa, x1 = 0.086	782
327.95 K, 11220 kPa, x1 = 0.118	842
327.95 K, 11260 kPa, x1 = 0.1484	873
327.95 K, 11650 kPa, x1 = 0.086	792
327.95 K, 11720 kPa, x1 = 0.118	849
327.95 K, 11760 kPa, x1 = 0.1484	878
327.95 K, 12200 kPa, x1 = 0.118	855
327.95 K, 12210 kPa, x1 = 0.086	802
327.95 K, 12260 kPa, x1 = 0.1484	883
327.95 K, 12680 kPa, x1 = 0.118	861
327.95 K, 12750 kPa, x1 = 0.086	812
327.95 K, 12800 kPa, x1 = 0.1484	888
327.95 K, 13200 kPa, x1 = 0.086	819
327.95 K, 13310 kPa, x1 = 0.1484	893
327.95 K, 13320 kPa, x1 = 0.118	868
327.95 K, 13680 kPa, x1 = 0.086	826
327.95 K, 13780 kPa, x1 = 0.118	873
327.95 K, 13800 kPa, x1 = 0.1484	897
327.95 K, 14170 kPa, x1 = 0.086	833
327.95 K, 14240 kPa, x1 = 0.1484	901
327.95 K, 14310 kPa, x1 = 0.118	879
327.95 K, 14710 kPa, x1 = 0.086	840
327.95 K, 14780 kPa, x1 = 0.1484	905
327.95 K, 14800 kPa, x1 = 0.118	884
327.95 K, 15160 kPa, x1 = 0.086	846
327.95 K, 15260 kPa, x1 = 0.118	888
327.95 K, 15300 kPa, x1 = 0.1484	909
327.95 K, 15660 kPa, x1 = 0.086	852
327.95 K, 15740 kPa, x1 = 0.118	892
327.95 K, 15860 kPa, x1 = 0.1484	913
327.95 K, 16180 kPa, x1 = 0.086	858
327.95 K, 16330 kPa, x1 = 0.118	897
327.95 K, 16560 kPa, x1 = 0.1484	918
328.15 K, 9640 kPa, x1 = 0.0481	532
328.15 K, 9710 kPa, x1 = 0.0481	543
328.15 K, 9800 kPa, x1 = 0.0481	556
328.15 K, 9910 kPa, x1 = 0.0481	570
328.15 K, 10030 kPa, x1 = 0.0481	585
328.15 K, 10180 kPa, x1 = 0.0481	600
328.15 K, 10340 kPa, x1 = 0.0481	615
328.15 K, 10540 kPa, x1 = 0.0481	632
328.15 K, 10720 kPa, x1 = 0.0481	645
328.15 K, 10940 kPa, x1 = 0.0481	659
328.15 K, 11190 kPa, x1 = 0.0481	673
328.15 K, 11350 kPa, x1 = 0.0481	681
332.85 K, 9040 kPa, x1 = 0.0242	282
332.85 K, 9110 kPa, x1 = 0.0242	287
332.85 K, 9180 kPa, x1 = 0.1484	814
332.85 K, 9200 kPa, x1 = 0.0242	292
332.85 K, 9270 kPa, x1 = 0.0242	298
332.85 K, 9350 kPa, x1 = 0.0242	305
332.85 K, 9430 kPa, x1 = 0.0242	311
332.85 K, 9520 kPa, x1 = 0.0242	318
332.85 K, 9620 kPa, x1 = 0.118	768
332.85 K, 9620 kPa, x1 = 0.1484	821
332.85 K, 9640 kPa, x1 = 0.0242	329
332.85 K, 9720 kPa, x1 = 0.0242	336
332.85 K, 9810 kPa, x1 = 0.0242	344
